The target in test [1] is T1, hIntL-1 (Homo sapiens, UniProt Q8WWA0). The settings on record: reported by Tsuji et al., 2001; read-out: apparent KD / apparent affinity for hIntL-1; cited from earlier work.
In test [2] the target is T1, hIntL-1. Put plainly: hIntL-1 on CFG mammalian glycan array v5.1. The settings on record: hIntL-1 50 and 200 μg/ml. More on the design: made in house; host or cells: HEK 293T (transient transfection, suspension). It counts as binding.
In test [3] the target is T1, hIntL-1. Put plainly: hIntL-1 carbohydrate binding ELISA-like assay (immobilized biotinylated carbohydrates). More on the design: made in house; host or cells: HEK 293T (transient transfection, suspension). As to conditions: for hIntL-1 binding to immobilized carbohydrate in ELISA: immobilized carbohydrate-biotin ligand. Here is the method: hIntL-1 Carbohydrate Binding ELISA-like Assay. To fabricate carbohydrate-displaying surfaces, 0.5 μg of streptavidin (Prozyme, cat. no. SA20) was adsorbed onto a Maxisorp (Nunc) flat bottom 96 well plate in PBS. Wells were washed with PBS and then coated with 5 μM of carbohydrate-biotin ligand in PBS for 1 hour at 22° C. Wells were blocked with bovine serum albumin (BSA) in ELISA buffer (20 mM HEPES (7.4) 150 mM NaCl, 10 mM CaCl2, and 0.1% tween-20). Samples containing hIntL-1 were prepared by serial dilution into ELISA buffer+0.1% BSA and added to wells for 2 hours at 22° C. Wells were washed four times with ELISA buffer. Bound hIntL-1 was detected using 0.75 μg/mL of a sheep IgG hIntL-1 antibody (R&D Systems, cat. no. AF4254) in ELISA buffer+0.1% BSA for 2 hours at 22° C. Wells were washed with ELISA buffer. A donkey anti-sheep IgG horseradish peroxidase (HRP) conjugate (Jackson ImmunoResearch Laboratories) was added at a 1:5,000 dilution in ELISA buffer+0.1% BSA for 1 hour at 22° C. Wells were washed and hIntL-1 was detected colorimetrically with addition of 1-Step Ultra TMB-ELISA (Pierce). Once sufficient signal was achieved (typically <2 min.), the reaction was quenched with addition of equal volume 2 M H2SO4. Plates were read at 450 nm on an EL×800 plate reader (Bio-Tek). […] Data were analyzed on Prism6 (GraphPad). Data were fit to the one site-specific binding equation.
(In an ELISA, binding on a coated surface is turned into a signal by an enzyme label.)

The target of test [4] is T1, hIntL-1. Nature of the test: hIntL-1 surface plasmon resonance on immobilized carbohydrates. On the set-up: made in house; host or cells: HEK 293T (transient transfection, suspension). The format is binding. As to conditions: concentrations up to 6-fold higher than the β-Galf KD. As to the method: hIntL-1 Surface Plasmon Resonance (SPR). All hIntL-1 SPR was performed on a ProteOn XPR36 (Bio-Rad) at the University of Wisconsin-Madison Department of Biochemistry Biophysics Instrumentation Facility (BIF). To measure hIntL-1 binding, ProteOn NLC sensor chips (Bio-Rad) (NeutrAvidin coated chips) were used to capture carbohydrate-biotin ligand. All experiments presented here were conducted at surface saturated levels of ligand, ˜200 RU. In all experiments, captured biotin served as a control. Samples containing purified hIntL-1 were prepared by serial dilution into hIntL-1 SPR running buffer (20 mM HEPES (7.4) 150 mM NaCl, 1 mM CaCl2, and 0.005% tween-20). Surfaces were regenerated with short injections of 10 mM HCl. All data was interspot corrected and processed using the Bio-Rad ProteOn software package.
Background: Surface plasmon resonance follows binding to a sensor surface in real time, without labels.

The next test deals with T2, Strep-hIntL-1 (Homo sapiens, UniProt Q8WWA0).
T2 construct: made in house; host or cells: HEK 293T (transient transfection)
T2 sequence (Q8WWA0 19-313): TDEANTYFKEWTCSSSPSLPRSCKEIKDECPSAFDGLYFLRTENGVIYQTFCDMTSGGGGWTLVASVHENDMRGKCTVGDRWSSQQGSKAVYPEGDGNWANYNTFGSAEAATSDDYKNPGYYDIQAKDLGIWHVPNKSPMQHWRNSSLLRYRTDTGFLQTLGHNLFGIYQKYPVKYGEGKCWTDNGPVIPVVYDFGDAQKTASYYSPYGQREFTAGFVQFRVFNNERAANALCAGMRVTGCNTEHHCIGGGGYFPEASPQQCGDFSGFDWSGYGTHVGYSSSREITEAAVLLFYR
Put plainly: Strep-hIntL-1 binding to S. pneumoniae serotypes. As to conditions: detected with anti-Strep-tag:Oyster 642 nm antibody.

Another test has as its target Strep-mIntL-1 (Mus musculus, UniProt O88310). As to conditions: SPR, referenced to biotin channel.
The test system of test [5] is UDP-galactopyranose mutase (UGM). The settings on record: UGM from the species listed; cited from earlier work.

Read-outs that look alike come from different tables or passages of the source.

T1 sequence (Q8WWA0 19-313): as above
Strep-mIntL-1, sequence (O88310 19-298): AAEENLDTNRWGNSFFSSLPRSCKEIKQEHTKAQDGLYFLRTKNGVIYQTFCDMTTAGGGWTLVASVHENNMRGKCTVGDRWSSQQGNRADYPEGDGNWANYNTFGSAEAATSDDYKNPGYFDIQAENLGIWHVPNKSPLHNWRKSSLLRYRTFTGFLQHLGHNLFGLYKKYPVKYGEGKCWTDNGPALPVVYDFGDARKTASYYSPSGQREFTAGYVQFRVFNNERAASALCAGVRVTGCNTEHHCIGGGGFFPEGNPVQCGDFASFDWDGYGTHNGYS

For `CC(=O)N[C@H]1C(O)O[C@H](CO)[C@@H](O[C@@H]2O[C@@H]([C@H](O)CO)[C@H](O)[C@H]2O)[C@@H]1O` (stereo partly drawn) [2-acetamido-2-deoxy-4-O-beta-D-galactofuranosyl-D-glucopyranose], on hIntL-1 [1], the Kd is 9 mM.
In the case of `O=C[C@H](O)[C@H](O)[C@H](O)CO` [D-ribose], the Kd on hIntL-1 [1] was below 5 mM.
For `CC(=O)N[C@H]1[C@H](OC[C@H]2OC(O)[C@H](NC(C)=O)[C@@H](O)[C@H]2O)O[C@H](CO)[C@H](O)[C@@H]1O` (stereo partly drawn) [GalNAcβ1-6GalNAc], the “hIntL-1 binding signal on CFG mammalian glycan array” value on hIntL-1 [2] is recorded as “highest signal”.
`O=C(CCCCC1SCC2NC(=O)NC21)NCCOCCOCCOCCOCc1cn(CCCCCCCCCC=CCOC2OC(C(O)CO)C(O)C2O)nn1` (stereo not drawn): on hIntL-1 [3] (disulfide-linked trimer, immobilized biotinylated carbohydrate, read-out: apparent avidity (apparent Kd) of trimeric hIntL-1 for immobilized ligand), the Kd was determined as 85 ± 14 nM. Further, at hIntL-1 [4], the “hIntL-1 binding to immobilized carbohydrate in SPR” value was “robust binding”.
Consider `OCC(O)CO` [glycerol], for which the “effect of additive on hIntL-1 binding to S. pneumoniae” value on Strep-hIntL-1 is “abrogate binding”.
As to `CC(=O)N[C@H]1[C@H]([C@H](O)[C@H](O)CO)OC(O)(C(=O)O)C[C@@H]1O` (stereo partly drawn) [Neu5Ac, N-acetyl-neuraminic acid], the “hIntL-1 binding to immobilized carbohydrate in ELISA” value is “lack of affinity” at hIntL-1 [3] and “does not bind” on hIntL-1 [3] (listed as α-Neu5Ac). For the same compound, the “hIntL-1 binding signal on CFG mammalian glycan array” value on hIntL-1 [2] is recorded as “lack of affinity”.
For `O=C(O)CN(CCN(CC(=O)O)CC(=O)O)CC(=O)O` [EDTA], on Strep-hIntL-1, the “effect of additive on hIntL-1 binding to S. pneumoniae” value is reported as “abrogate binding”. Also, at Strep-mIntL-1, the “effect of additive on mIntL-1 carbohydrate binding” value is listed as “prevents carbohydrate binding”. In addition, the “effect of additive on hIntL-1 binding to β-Galf” value on hIntL-1 [3] (hIntL-1 conditioned HEK culture media, 25 mM EDTA) is listed as “completely abolished binding”.
For `O=C(O)C(Cc1ccc(I)cc1)Nc1nc(-c2ccc(Cl)c(Cl)c2)cs1` (stereo not drawn) [3-(4-iodophenyl)-2-[4-(3,4-dichlorophenyl)-thiazol-2-ylamino]-propionic acid], in test [5], the “inhibition of UGM” value is recorded as “active against UGM”.
On to `OC[C@H]1O[C@@H](O)[C@H](O)[C@@H](O)[C@H]1O` [β-Galp, β-galactopyranose], for which the “hIntL-1 binding to immobilized carbohydrate in SPR” value on hIntL-1 [4] was “small response”.
Consider `Cc1c(C(=O)c2ccc(Cl)cc2)c(O)nn1-c1ccc(Cl)cc1` [4-chlorophenyl)-[1-(4-chlorophenyl)-3-hydroxy-5-methyl-1H-pyrazol-4-yl]-methanone], for which the “inhibition of UGM” value in test [5] is recorded as “inhibits UGM”.

The record behind these values is patent publication US10082506B2 (Wisconsin Alumni Research Foundation, priority 2014, dated 2018).
